First the molecules themselves.
B1: NPY(22–36) (peptide, UniProt P01303 50-64, looked up)
peptide: SALRHYINLITRQRY
notes: neuropeptide Y, residues 22-36; also called neuropeptide Y(22–36)
B2: human neuropeptide Y Y2 receptor expressed in CHO cells (receptor, UniProt P49146 1-381, looked up)
chain: MGPIGAEADENQTVEEMKVEQYGPQTTPRGELVPDPEPELIDSTKLIEVQVVLILAYCSIILLGVIGNSLVIHVVIKFKSMRTVTNFFIANLAVADLLVNTLCLPFTLTYTLMGEWKMGPVLCHLVPYAQGLAVQVSTITLTVIALDRHRCIVYHLESKISKRISFLIIGLAWGISALLASPLAIFREYSLIEIIPDFEIVACTEKWPGEEKSIYGTVYSLSSLLILYVLPLGIISFSYTRIWSKLKNHVSPGAANDHYHQRRQKTTKMLVCVVVVFAVSWLPLHAFQLAVDIDSQVLDLKEYKLIFTVFHIIAMCSTFANPLLYGWMNSNYRKAFLSAFRCEQRLDAIHSEVSVTFKAKKNLEVRKNSGPNDSFTEATNV
notes: neuropeptide Y receptor type 2 (Y2), human cDNA in pcDNA 3.1+; Assayed in particulates (membranes) of the cells and in digitonin/cholate lysates of them; also called hY2 receptor; CHO-Y2; source: CHO-K1, stably expressed (cDNA in pcDNA 3.1+), postnuclear particulates, solubilised with digitonin and cholate

In series [1] the test system is 180 kDa heteropentamer (Y2 receptor dimer, G-protein trimer). The experiment in a line: Nucleotide labeling / conversion of 180 kDa heteropentamer to 90 kDa Gi3α-receptor monomer. The class given is biochemical. The conditions noted are these: 1–5 mM Mg^2+, micromolar GDP or GγS. Here is the method:
The receptors were labeled for 30 min at 25 °C in respective particulates (50 μg protein/assay), employing not more than 50 pM [^125I]-labeled agonist peptides (as stated in individual experiments). Higher molar inputs of agonist peptides would produce significant Gα activation within short exposures (e.g., [24, 53]). The basal assay buffer contained 0.2% proteinase-free bovine serum albumin, 20 mM hepes.NaOH (pH 7.4), 1 mM diisopropylfluorophosphate, 0.04% bacitracin, and 10 μg/mL each of proteinase inhibitors aprotinin, bestatin, chymostatin, leupeptin and pepstatin. Depending on experiment design, this was supplemented by 3 mM CaCl2 and 1 mM MgCl2, (buffer A) or by 1 mM Na EDTA, pH 7.4 (buffer B). The nucleotide site labeling at 200 pM [^35S]GγS was for 30 min at 28 °C after pre-activation for 30 min at 28 °C at 3 μM GDP in the basal buffer with 50 μM EDTA, 100 mM NaCl and 4 mM MgCl2, and without CaCl2 (buffer C). All subsequent operations were carried out at 0–5 °C. The assays were terminated by sedimentation for 10 min at 30,000× gmax, followed by surface wash of the pellets.
Rabbit kidney postmitochondrial particulates, rabbit piriform cortex and hypothalamic crude synaptosomes and CHO cell postnuclear particulates were prepared as described previously. After solubilization of particulates at 10 mM each of digitonin and sodium cholate in buffer A or B, the lysates were spun for 10 min at 1000× g to remove debris, and the supernatants sedimented for periods indicated in figure captions at 218,000× gmax through linear 5%–20% sucrose gradients (10 mL, made in buffer A). The gradients were divided by bottom dripping in 23 fractions of 0.45 mL. The sedimentation positions were calibrated with [^125I]-labeled bovine γ-globulin (158 kDa), human iron-saturated transferrin (75 kDa) and ovalbumin (44 kDa), and with colorized myosin (211 kDa), producing a linear relation of migration to molecular weight (R^2 > 0.99). […]

Series [2] deals with 180 kDa heteropentamer and 90 kDa monomer-Gi α of Y2 receptor. The experiment in a line: Stability of agonist binding of 180 kDa and 90 kDa Y2 complexes to reagents. Type of series: biochemical, rabbit. The conditions noted are these: for sensitivity of 180 kDa labeled material to K^+: 0.3 M K^+ (as KCl or KI). The text has this:
Figure 6. Stability and affinity of agonist binding differs greatly for heteropentamer and monomer forms of the rabbit kidney Y2 receptor. (A) Y2 agonist attached to 180 kDa heteropentamer is recovered completely by 10% polyethyleneglycol (PEG) at 0.3 M K^+ (The data are averages of six gradients, ±1 S.E.).
The stability and affinity of agonist association with CHO-Y2 receptors could also be analyzed at the level of dimers and monomers by extraction and precipitation procedures coupled to competition binding assays (Figure 6).
The pellets were then counted in a scintillation counter.
(§1) Rabbit kidney postmitochondrial particulates, rabbit piriform cortex and hypothalamic crude synaptosomes and CHO cell postnuclear particulates were prepared as described previously. After solubilization of particulates at 10 mM each of digitonin and sodium cholate in buffer A or B, the lysates were spun for 10 min at 1000× g to remove debris, and the supernatants sedimented for periods indicated in figure captions at 218,000× gmax through linear 5%–20% sucrose gradients (10 mL, made in buffer A). The gradients were divided by bottom dripping in 23 fractions of 0.45 mL. The sedimentation positions were calibrated with [^125I]-labeled bovine γ-globulin (158 kDa), human iron-saturated transferrin (75 kDa) and ovalbumin (44 kDa), and with colorized myosin (211 kDa), producing a linear relation of migration to molecular weight (R^2 > 0.99).

In series [3] the test system is Y2 receptor aggregates (rabbit kidney). As to the kind of experiment: Y2 receptor aggregates, sedimentation after treatment, rabbit kidney particulates. Type of series: biochemical. Particulars: 15 min at 24 °C. Here is the method: (§2) Figure 5. […] Particulates from rabbit kidney (A) and anterior hypothalamus (B) were incubated with 20 μM GγS or 10 μM U73122 for 15 min at 24 °C, sedimented, resuspended, labeled with 50 pM [^125I]hPYY(3–36) for 15 min at 24 °C, resedimented, lysed at 10 mM each digitonin and cholate and sedimented through a 10%–30% linear sucrose gradient for 6 h at 218,000× g and 5 °C, followed by gradient fractionation and counting. TEXT PRINTED IN THE PICTURE: (A) GγS: Bottom count: 10.8% | (A) U73122: Bottom count: 25.4% | (B) GγS: Bottom count: 8.98 % | (B) U73122: Bottom count: 17.4 %
as §1

The subject of series [4] is aggregated Y2 receptor material (rabbit kidney and CHO-Y2 particulates). The experiment in a line: Release of aggregated Y2 receptor material (bottom of 5%–20% gradients). The class given is biochemical. The conditions noted are these: 10 μM, preliminary experiment. Here is the method: More than 30% of the Y2 binding in rabbit kidney postmitochondrial particulates, and more than 20% in the CHO-Y2 postnuclear particulates sediments to the bottom of 5%–20% sucrose gradients over 18 h at 218,000× gmax, corresponding to weight in excess of 1000 kDa. A large part of this material sediments at 30,000× gmax over 10 min, and could be considered as aggregated. […] This preliminary experiment points to potential of such procedures in quantitation of effector-associated receptors at the level of dimers and monomers. There also is a promise of gaining more insight on the size and significance of receptor oligomers incorporating more than two receptor monomers.
as §1

Series [5] concerns Y2 receptor aggregates (anterior hypothalamus). The experiment in a line: Y2 receptor aggregates, sedimentation after treatment, rabbit anterior hypothalamus particulates. The conditions noted are these: 10 μM, 15 min at 24 °C, 10%–30% gradient 6 h at 218,000× g. Type of series: biochemical. Here is the method: as §2
Rabbit kidney postmitochondrial particulates, rabbit piriform cortex and hypothalamic crude synaptosomes and CHO cell postnuclear particulates were prepared as described previously. After solubilization of particulates at 10 mM each of digitonin and sodium cholate in buffer A or B, the lysates were spun for 10 min at 1000× g to remove debris, and the supernatants sedimented for periods indicated in figure captions at 218,000× gmax through linear 5%–20% sucrose gradients (10 mL, made in buffer A). The gradients were divided by bottom dripping in 23 fractions of 0.45 mL. […]

Series [6] concerns the target rabbit Y2 receptor, native (rabbit (endogenous in kidney cortex, hypothalamus, piriform cortex)). The experiment in a line: radioligand binding; aliquots of gradient fractions of labeled rabbit kidney particulates precipitated with 10% polyethyleneglycol-8000 at 300 mM KCl or KI and 50 μg/mL bovine γ-globulin, 10 min at 0–4 °C.
A further series concerns endothelin-1 receptor. Particulars: cited from earlier work. From the text:
(§3) The classical view of agonist binding assumes an attachment that is readily terminated by dilution or competition by ligands of higher affinity, such as competitive antagonists. The weak agonist binding for small ligand receptors, such as catecholamine receptors, greatly diminishes analytical options. This has signally contributed to the analytical success of covalent proteinaceous tags. However, many GPCRs with peptidic agonists show agonist attachments that are stable at least at low temperatures, and slow to dissociate even at 37 °C. Such stable (“quasi-irreversible”) binding was found for ...

The target in series [7] is rabbit Y2 receptor, native (rabbit (endogenous in kidney cortex, hypothalamus, piriform cortex)). As to the kind of experiment: radioligand binding; competition of PYY(3–36), rabbit kidney particulates after extraction with 8 mM cholate at 0–5 °C (>90% dimeric residue), trypsin up to 3 μg/mL.
The target is the same in series [8]. As to the kind of experiment: radioligand binding; competition of PYY(3–36) with [125I]PYY(3–36), rabbit kidney particulates, entire receptor complement.
Another series has as its system neuromedin U receptors. Particulars: cited from earlier work.
Description: as §3

The next series relates to Y1 receptor. Particulars: cited from earlier work.
Description: as §3

A further series relates to Y2 receptor. Particulars: cited from earlier work. The text has this: The classical view of agonist binding assumes an attachment that is readily terminated by dilution or competition by ligands of higher affinity, such as competitive antagonists. The weak agonist binding for small ligand receptors, such as catecholamine receptors, greatly diminishes analytical options.

The subject of the next series is Y4 receptor. Particulars: cited from earlier work.
Description: as §3

Series [9] relates to human calcitonin receptor. Particulars: cited from earlier work.
Description: as §3

Series [10] relates to rabbit kidney Y2 receptor. The experiment in a line: PYY(3–36) binding to rabbit kidney Y2 receptor (heteropentamer and monomer forms).
Description: The receptors were labeled for 30 min at 25 °C in respective particulates (50 μg protein/assay), employing not more than 50 pM [^125I]-labeled agonist peptides (as stated in individual experiments). […] The basal assay buffer contained 0.2% proteinase-free bovine serum albumin, 20 mM hepes.NaOH (pH 7.4), 1 mM diisopropylfluorophosphate, 0.04% bacitracin, and 10 μg/mL each of proteinase inhibitors aprotinin, bestatin, chymostatin, leupeptin and pepstatin. Depending on experiment design, this was supplemented by 3 mM CaCl2 and 1 mM MgCl2, (buffer A) or by 1 mM Na EDTA, pH 7.4 (buffer B). The nucleotide site labeling at 200 pM [^35S]GγS was for 30 min at 28 °C after pre-activation for 30 min at 28 °C at 3 μM GDP in the basal buffer with 50 μM EDTA, 100 mM NaCl and 4 mM MgCl2, and without CaCl2 (buffer C). All subsequent operations were carried out at 0–5 °C. The assays were terminated by sedimentation for 10 min at 30,000× gmax, followed by surface wash of the pellets.
The target in series [11] is B2. As to the kind of experiment: radioligand binding; competition against [125I]PYY(3–36) at the hY2 receptor; conditions not given. The conditions noted are these: one partner purified.
Series [12] concerns the molecule itself. As to the kind of experiment: sucrose density gradient centrifugation; CHO-Y2 particulates preincubated in assay buffer at 27 °C (1 h or 3 h) or in ice (3 h), labeled 20 min at 27 °C with [125I]PYY(3–36), solubilised at 10 mM each digitonin and cholate, 5%–20% sucrose gradients, 18 h at 5 °C, 218,000 x gmax.

No end group written: not given here. Bounds are passed on as bounds.

`Nc1nc2c(ncn2[C@@H]2O[C@H](COP(=O)(O)OP(=O)(O)O)[C@@H](O)[C@H]2O)c(=O)[nH]1` [GDP]: in series [1], the “conversion of 180 kDa heteropentamer” value is “does convert to immunoprecipitable 90 kDa Gi3α-receptor monomer”. Turning to `[Cl-].[K+]` [KCl], the “effect on Y2 agonist bound to 90 kDa monomer-Gi α” value in [2] (0.3 M KCl) was “detached”. Moreover, the “sensitivity of 180 kDa labeled material to K^+” value in series [2] was “not sensitive”.

Take `[I-].[K+]` [KI]: in series [2], the “sensitivity of 180 kDa labeled material to K^+” value is given as “not sensitive”.

For the molecule `COc1ccc2c(c1)CC[C@@H]1[C@@H]2CC[C@]2(C)[C@@H](NCCCCCCN3C(=O)C=CC3=O)CC[C@@H]12` [U73122], the “main form yielded from Y2 receptor aggregates” value in [3] (particulates from rabbit tissues (kidney and anterior hypothalamus), GγS 20 μM or U73122 10 μM) was “largely the heteropentamer”. The Bottom count amounted to 25.4% in series [3] (rabbit kidney, 10 μM, 10%–30% gradient 6 h at 218,000× g) and 17.4% in series [5]. Besides, the “part of aggregated material released” value in series [4] was “About a third”.

Regarding `C[C@H](CCC(=O)[O-])[C@H]1CC[C@H]2[C@@H]3[C@H](O)C[C@@H]4C[C@H](O)CC[C@]4(C)[C@H]3C[C@H](O)[C@]12C.[Na+]` [sodium cholate], the “effect on Y2 agonist bound to 90 kDa monomer-Gi α” value in series [2] (8 mM cholate at 0–5 °C) was “detached”. Also, the “effect of sodium cholate on activated monomers” value in series [2] (rabbit kidney particulates) was “removes activated monomers”. The molecule “[125I]human peptide YY(3–36) (from UniProt P10082 31-64)” registered a percent of the 180 kDa labeled material precipitated at 10% PEG in series [6] of over 80%. For the molecule endothelin, the “stability of agonist binding” value in the series with endothelin-1 receptor was “quasi-irreversible”. As a reminder, the IC50 is the point on the concentration scale where inhibition reaches its midpoint. In the case of “human peptide YY(3–36) (from UniProt P10082 31-64)”, the 50% inhibitory concentration (IC50) was 0.01 nM in series [7] and 0.2 to 0.5 nM in [8]. Consider “neuromedin U (FRVDEEFQSPFASQSRGYFLFRPRN; ends and bridges not checked; UniProt P48645 142-166, looked up) [agonist at its receptors]”, for which the “stability of agonist binding” value in the series on neuromedin U receptors is reported as “quasi-irreversible”. For the molecule neuropeptide Y [NPY], the “stability of agonist binding” value in the series with Y1 receptor and with Y2 receptor was “quasi-irreversible” each time.

Take pancreatic polypeptide: the “stability of agonist binding” value with Y4 receptor was “quasi-irreversible”. For the molecule salmon calcitonin, the “stability of agonist binding” value in [9] was “quasi-irreversible”. Regarding trypsin, in [2] (rabbit kidney particulates), the “stability of heteropentamers to trypsin” value is “considerable stability”. Besides, the “Bmax for the dimeric Y2 in the cholate residue” value in series [10] (above 0.3 μg trypsin) was “increases significantly”. Besides, in series [10] (trypsin at up to 3 μg/mL, cholate residue), the “effect on affinity of PYY(3–36) binding to dimeric residue” value is “unaffected”.

As a reminder, the Kd is the constant that tells how readily two partners part at equilibrium. A high value points to a looser complex. For B1, in series [11], the Kd was determined as 6.2 ± 1.2 nM. One may read the stoichiometry N as the number of molecules, sites or subunits per partner or assembly. In the case of B2, in series [12], the “stoichiometry N” value turned out to be 2.

Source of the values: publication PMC3975428, “Dimers of G-Protein Coupled Receptors as Versatile Storage and Response Units” (International Journal of Molecular Sciences, 2014).
